How the values were obtained:
HEK293 cells = experiment: CerS2 siRNA knockdown in HEK293 cells with nervonic acid treatment, C24:1 ceramide; format: cell-based; conditions: 1 μM NA for 24 hours
Description: Cell culture. HEK293 cells were grown in DMEM containing 10% FBS. Cells were transfected with Silencer Select siRNA to CerS2 (s26789) or Silencer Select negative control No. 1 using LIPOFECTAMINE® 3000 brand transfection reagent following the manufacturer's protocol. All culture reagents were obtained from Thermo Fisher Scientific (Waltham, Mass., United States of America). 48 hours post-transfection, cells were treated with vehicle or 1 μM nervonic acid for 24 hours.
Sphingolipid and acylcarnitine measurements by liquid chromatography-mass spectrometry. Sphingolipids were analyzed as described previously (Wijesinghe et al., 2010) for FIG. 1B or with modifications described herein. Liver samples from rats fed a low or high fat diet were obtained from Scot Kimball's laboratory at the Pennsylvania State University (Hershey, Pa.). Mouse liver samples were analyzed with modifications as described previously (Pearson et al., 2020). For FIGS. 1A and 5D, liver homogenates were subjected to lipid extraction and subjected to liquid chromatography-electrospray ionization mass spectrometry was performed on an I-class Acquity with a 2.1 mm×10 cm C18 CSH […] particle size column coupled to an in-line TQ-S mass spectrometer from Waters Corporation (Milford, Mass., United States of America).

C57Bl/6J mice = experiment: Body weight over 12 weeks on the diets; format: in vivo, mouse
Description: Animals. Animal experiments were approved by the Animal Care and Use Committee of the University of Virginia (Charlottesville, Va., United States of America). C57Bl/6J mice were obtained from Jackson Laboratories (Bar Harbor, Me., United States of America). Mice were group housed in standard cages with up to five mice per cage with a 12 hour dark/light cycle. All mice were weighed once per week. Weekly food consumption was measured, with the amount consumed per cage averaged amongst the mice in the cage. Body composition was determined by use of an ECHOMRI™-100H Body Composition Analyzer (EchoMRI LLC, Houston, Tex., United States of America).
Diets. Diets were obtained from Research Diets (New Brunswick, N.J., United States of America). The low fat chow was D12450Ji (10 kcal % fat) and the high fat chow was D12492 (60 kcal % fat). These two chows were reformulated by replacing a portion of dietary fat with an ethyl ester of nervonic acid from Nu-Chek Prep (Elysian, Minn., United States of America) to produce isocaloric diets with nervonic acid at 6 g per kg of diet (0.6%). For the three most prevalent fatty acids in these diets: C16 comprised 14.4%, 11.7%, 18.5%, and 18.1%; C18:1 comprised 27.4%, 22.8%, 32%, and 31.4%; and C18:2 comprised 39.6%, 36.2%, 26.9%, and 26.5% of the fatty acid composition of the Cnt, Cnt+NA, HFD, and HFD+NA diets, respectively. Mice were started on diets at ˜8 weeks of age and given ad libitum access.

For (Z)-tetracos-15-enoic acid [NA], the “C24:1 ceramide after CerS2 knockdown” value (HEK293 cells) was “only partially restored”, the body weight gain (C57Bl/6J mice; HFD+NA versus HFD, 12 weeks) was “significantly less body weight gain” and the body weights (C57Bl/6J mice; HFD+NA versus control diet, 12 weeks) was “not significantly different”. The “body weight gains over time” value (C57Bl/6J mice; NA-enriched control diet versus control diet) was “significantly less body weight gains over time”.

Reference: patent US20220347144A1, “COMPOSITIONS AND METHODS FOR PREVENTING AND/OR REDUCING WEIGHT GAIN AND ASSOCIATED CONDITIONS” (University of Virginia Patent Foundation, priority 2019, published 2022)
